Assay [1] concerns the target T1, helicase domain of the Pol θ protein (Homo sapiens, UniProt O75417).
T1 construct: The helicase domain of the Pol θ protein was purified from insect protein expression system; made in house; host or cells: insect protein expression system
Nature of the assay: Biochemical Activity Assay (ADP Glo Assay) of Pol θ inhibitor, ATPase activity. To be noted: ssDNA substrate, read-out: Biochemical assay IC50.

The nature of assay [2]: cells. To be noted: Homo sapiens, DLD-1, 240 h.
The mark [3] stands for this setting: ADP-Glo assay, ATPase activity of Pol θ helicase domain.
Setting [4] is: ADP-Glo, 60 min at room temperature.
Where [5] appears, read: read-out: Cell viability assay IC50 (nM), CTG assay, CellTiter Glo, read on Day 10, cell line not given.
Setting [6] is: read-out: Cell viability assay IC50 (nM), CTG on Day 10, cell line not given (method: DLD1 and DLD1^-/- cells).

Each structure is given as a SMILES string. Read-outs that look alike come from different tables or passages of the source.

T1 sequence (O75417 102-554 limits assumed): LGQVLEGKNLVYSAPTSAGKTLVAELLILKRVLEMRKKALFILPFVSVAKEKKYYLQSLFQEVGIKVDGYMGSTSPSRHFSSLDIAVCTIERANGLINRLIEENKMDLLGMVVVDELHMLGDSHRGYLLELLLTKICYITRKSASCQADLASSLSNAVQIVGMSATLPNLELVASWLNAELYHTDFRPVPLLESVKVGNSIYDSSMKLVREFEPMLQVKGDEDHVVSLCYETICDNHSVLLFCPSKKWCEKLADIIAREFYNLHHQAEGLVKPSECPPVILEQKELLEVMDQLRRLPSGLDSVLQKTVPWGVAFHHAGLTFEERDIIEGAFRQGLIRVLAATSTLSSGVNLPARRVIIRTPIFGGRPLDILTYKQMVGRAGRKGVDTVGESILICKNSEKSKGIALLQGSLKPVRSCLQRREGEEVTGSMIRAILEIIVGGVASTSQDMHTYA

One may read the IC50 as the concentration that gives 50% inhibition. For `COc1cnc(Cl)cc1-c1cc(C)ncc1C(=O)Nc1nc2ncc(-c3ccc(P(C)(C)=O)cc3)cc2s1` [Example 75, 2'-chloro-N-(6-(4-(dimethylphosphoryl)phenyl)thiazolo[4,5-b]pyridin-2-yl)-5'-methoxy-6-methyl-[4,4'-bipyridine]-3-carboxamide], the IC50 in assay [1] (setting [3]) is 2.51 nM; in assay [1] (setting [4]) it was less than 50 nM; in assay [2] (setting [5]), 681 nM; in assay [2] (setting [6]) it was 500 to 1000 nM.

Turning to `COc1cnc(Cl)cc1-c1cc(C)ncc1C(=O)Nc1nc2ncc(-c3ccc(=O)[nH]c3)cc2s1` [Example 76], the values for the IC50 in assay [1] (setting [3]), in assay [1] (setting [4]) and in assay [2] (setting [6]) were 5.14 nM, less than 50 nM and more than 1000 nM, respectively.

Turning to `COc1cnc(Cl)cc1-c1cc(C)ncc1C(=O)Nc1nc2ncc(C3=CCC4(CC3)CC(O)C4)cc2s1` (stereo not shown) [Example 77], the IC50 was 3.94 nM in assay [1] (setting [3]), less than 50 nM in assay [1] (setting [4]), 7.36 nM in assay [2] (setting [5]) and less than 100 nM in assay [2] (setting [6]).

Turning to `COc1cnc(Cl)cc1-c1cc(C)ncc1C(=O)Nc1nc2ncc(C3=CCC4(CC3)COC4)cc2s1` [Example 78], the IC50 in assay [1] (setting [3]) was 2.89 nM; in assay [1] (setting [4]), less than 50 nM; in assay [2] (setting [5]) it was 8.21 nM; in assay [2] (setting [6]), less than 100 nM.

On to `COc1cnc(Cl)cc1-c1cc(C)ncc1C(=O)Nc1nc2ncc(C3=CC(O)CC3)cc2s1` (stereo not shown) [Example 79], for which the IC50 is 3.35 nM in assay [1] (setting [3]), less than 50 nM in assay [1] (setting [4]), 92.6 nM in assay [2] (setting [5]) and less than 100 nM in assay [2] (setting [6]).

For `COc1cnc(Cl)cc1-c1cc(C)ncc1C(=O)Nc1nc2ccc(-c3c(C)cnn3C)nc2s1` [Example 80], the IC50 is 9.12 nM in assay [1] (setting [3]), less than 50 nM in assay [1] (setting [4]), 30.3 nM in assay [2] (setting [5]) and less than 100 nM in assay [2] (setting [6]).

Regarding `COc1cnc(Cl)cc1-c1cc(C)ncc1C(=O)Nc1nc2ncc(-c3ccc(N4CCNCC4)cc3)cc2s1` [Example 81], the IC50 was 2.51 nM in assay [1] (setting [3]), less than 50 nM in assay [1] (setting [4]), 30.4 nM in assay [2] (setting [5]) and less than 100 nM in assay [2] (setting [6]).

In the case of `COc1cnc(Cl)cc1-c1cc(C)ncc1C(=O)Nc1nc2ccc(-c3ccncc3Cl)nc2s1` [Example 82], the IC50 in assay [1] (setting [3]) is 6.71 nM; in assay [1] (setting [4]), less than 50 nM; in assay [2] (setting [5]) it was 104 nM; in assay [2] (setting [6]) it was 100 to 500 nM.

On to `COc1cnc(Cl)cc1-c1cc(C)ncc1C(=O)Nc1nc2ccc(-c3ccncc3C)nc2s1` [Example 83], for which the IC50 in assay [1] (setting [3]) was 3.21 nM; in assay [1] (setting [4]), less than 50 nM; in assay [2] (setting [5]), 29.3 nM; in assay [2] (setting [6]), less than 100 nM.

For `COc1cnc(Cl)cc1-c1cc(C)ncc1C(=O)Nc1nc2cc(F)c(C3=CCC(O)CC3)cc2s1` (stereo not shown) [Example 84], the IC50 is 1.81 nM in assay [1] (setting [3]), less than 50 nM in assay [1] (setting [4]), 2.42 nM in assay [2] (setting [5]) and less than 100 nM in assay [2] (setting [6]).

In the case of `COc1cnc(Cl)cc1-c1cc(C)ncc1C(=O)Nc1nc2cc(F)c(-c3ccc(P(C)(C)=O)cc3)cc2s1` [Example 85], the IC50 is 1.81 nM in assay [1] (setting [3]), less than 50 nM in assay [1] (setting [4]), 44.7 nM in assay [2] (setting [5]) and less than 100 nM in assay [2] (setting [6]).

In the case of `COc1cnc(Cl)cc1-c1cc(C)ncc1C(=O)Nc1nc2ncc(C3=COCCO3)cc2s1` [Example 86], the IC50 in assay [1] (setting [3]) was 2.67 nM; in assay [1] (setting [4]) it was less than 50 nM; in assay [2] (setting [5]), 23.3 nM; in assay [2] (setting [6]), less than 100 nM.

In the case of `COc1cnc(Cl)cc1-c1cc(C)ncc1C(=O)Nc1nc2ncc(C3(O)CCC4(CC3)COC4)cc2s1` [Example 88, 2'-chloro-N-(6-(7-hydroxy-2-oxaspiro[3.5]non-7-yl)thiazolo[4,5-b]pyridin-2-yl)-5'-methoxy-6-methyl-[4,4'-bipyridine]-3-carboxamide], the IC50 in assay [1] (setting [3]) is 1.15 nM; in assay [1] (setting [4]), less than 50 nM; in assay [2] (setting [5]) it was 52.1 nM; in assay [2] (setting [6]), less than 100 nM.

In the case of `COc1cnc(Cl)cc1-c1cc(C)ncc1C(=O)Nc1nc2cc[nH]c2s1` [Example 90, 2'-chloro-5'-methoxy-6-methyl-N-(4H-pyrrolo[3,2-d]thiazol-2-yl)-[4,4'-bipyridine]-3-car boxamide], the IC50 is more than 500 nM in assay [1] (setting [4]) and more than 1000 nM in assay [2] (setting [6]).

On to `COc1cnc(Cl)cc1-c1cc(C)ncc1C(=O)Nc1nc2cnc(C3=CCC(O)CC3)nc2s1` (stereo not shown) [Example 91, 2'-chloro-N-(5-(4-hydroxycyclohex-1-en-1-yl)thiazolo[5,4-d]pyrimidin-2-yl)-5'-methoxy-6-methyl-[4,4'-bipyridine]-3-carboxamide], for which the IC50 is 1.88 nM in assay [1] (setting [3]), less than 50 nM in assay [1] (setting [4]), 11.7 nM in assay [2] (setting [5]) and less than 100 nM in assay [2] (setting [6]).

As for `COc1cnc(Cl)cc1-c1cc(C)ncc1C(=O)Nc1nc2ncc(CC(C)(C)O)cc2s1` [Example 93, 2'-chloro-N-(6-(2-hydroxy-2-methylpropyl)thiazolo[4,5-b]pyridin-2-yl)-5'-methoxy-6-me thyl-[4,4'-bipyridine]-3-carboxamide], the IC50 in assay [1] (setting [3]) is 5.93 nM; in assay [1] (setting [4]), less than 50 nM; in assay [2] (setting [5]) it was 355 nM; in assay [2] (setting [6]), 100 to 500 nM.

As to `COc1cnc(Cl)cc1-c1cc(C)ncc1C(=O)Nc1nc2ncc(S(C)(=O)=O)cc2s1` [Example 94, 2'-chloro-5'-methoxy-6-methyl-N-(6-(methylsulfonyl)thiazolo[4,5-b]pyridin-2-yl)-[4,4'-bipyridine]-3-carboxamide], the IC50 was 6.98 nM in assay [1] (setting [3]), less than 50 nM in assay [1] (setting [4]), 631 nM in assay [2] (setting [5]) and 500 to 1000 nM in assay [2] (setting [6]).

For the compound `COc1cnc(Cl)cc1-c1cc(C)ncc1C(=O)Nc1nc2ncc(C(C)(C)O)cc2s1` [Example 95, 2'-chloro-N-(6-(2-hydroxypropan-2-yl)thiazolo[4,5-b]pyridin-2-yl)-5'-methoxy-6-methyl-[4,4'-bipyridine]-3-carboxamide], the IC50 was 8.94 nM in assay [1] (setting [3]), less than 50 nM in assay [1] (setting [4]), 383 nM in assay [2] (setting [5]) and 100 to 500 nM in assay [2] (setting [6]).

Consider `COc1cnc(Cl)cc1-c1cc(C)ncc1C(=O)Nc1nc2ncc(C(=O)N3CCC(O)CC3)cc2s1` [Example 96, 2'-chloro-N-(6-(4-hydroxypiperidin-1-carbonyl)thiazolo[4,5-b]pyridin-2-yl)-5'-methoxy-6-methyl-[4,4'-bipyridine]-3-carboxamide], for which the IC50 in assay [1] (setting [3]) was 5.58 nM; in assay [1] (setting [4]), less than 50 nM; in assay [2] (setting [5]) it was 7640 nM; in assay [2] (setting [6]), more than 1000 nM.

Take `COc1cnc(Cl)cc1-c1cc(C)ncc1C(=O)Nc1nc2ncc(N3CCC(CO)CC3)cc2s1` [Example 98, 2'-chloro-N-(6-(4-(hydroxymethyl)piperidin-1-yl)thiazolo[4,5-b]pyridin-2-yl)-5'-methox y-6-methyl-[4,4'-bipyridine]-3-carboxamide]: the IC50 was 2.96 nM in assay [1] (setting [3]), less than 50 nM in assay [1] (setting [4]), 10.6 nM in assay [2] (setting [5]) and less than 100 nM in assay [2] (setting [6]).

Consider `COc1cnc(Cl)cc1-c1cc(C)ncc1C(=O)Nc1nc2ncc(N3CCC4(CC(O)C4)C3)cc2s1` (stereo not shown) [Example 99], for which the IC50 was 14.3 nM in assay [1] (setting [3]), less than 50 nM in assay [1] (setting [4]), 138 nM in assay [2] (setting [5]) and 100 to 500 nM in assay [2] (setting [6]).

On to `COc1cnc(Cl)cc1-c1cc(C)ncc1C(=O)Nc1nc2ncc(N3CC[C@H](O)[C@H](F)C3)cc2s1` [Example 100], for which the IC50 is 2.95 nM in assay [1] (setting [3]), less than 50 nM in assay [1] (setting [4]), 207 nM in assay [2] (setting [5]) and 100 to 500 nM in assay [2] (setting [6]).

For the origin of these results see patent EP4585599A1, “NITROGEN-CONTAINING FUSED RING COMPOUND, INTERMEDIATE THEREOF, PREPARATION METHOD THEREFOR AND USE THEREOF” (Hangzhou Synrx Therapeutics Biomedical Technology Co., Ltd., priority 2022, dated 2024).
